assay: Pharmacokinetic test of compound in SD rat; assay type: in vivo; settings: SD rats, intragastric administration (IG), cassette dosing
Description: Example 28: Pharmacokinetic Test of Compound in SD Rat
The animal species used in this experiment were SD rats. There were 3 animals per group. The rats were dosed in cassette format, i.e., multiple (1-6) different compounds were dosed simultaneously to the same group of the SD rats. The vehicle used for the drug was 5% DMSO+5% Solutl+90% ([…] methylcellulose M450), and the administration route was intragastric administration (IG).

Structure (SMILES)	AUC_D [kg·ng·h/mL/mg]
CNC(=O)[C@H]1O[C@@H](n2cnc3c(NCc4ccccc4)nc(-c4cncc(F)c4)nc32)[C@H](O)[C@@H]1O [compound 153, (2S,3S,4R,5R)-5-(6-(benzylamino)-2-(5-fluoropyridin-3-yl)-9H-purin-9-yl)-3,4-dihydroxyl-N-methyltetrahydrofuran-2-carboxamide]	829.00
CCOc1cncc(-c2nc(NCc3ccccc3)c3ncn([C@@H]4O[C@H](C(=O)NC)[C@@H](O)[C@H]4O)c3n2)c1 [compound 158, (2S,3S,4R,5R)-5-(6-(benzylamino)-2-(5-ethoxypyridin-3-yl)-9H-purin-9-yl)-3,4-dihydroxyl-N-methyltetrahydrofuran-2-carboxamide]	602.00
[2H]C([2H])([2H])NC(=O)[C@H]1O[C@@H](n2cnc3c(NCc4cccc(C)c4)nc(-c4cncc(F)c4)nc32)[C@H](O)[C@@H]1O [compound 162, (2S,3S,4R,5R)-5-(2-(5-fluoropyridin-3-yl)-6-((3-methylbenzyl)amino)-9H-purin-9-yl)-3,4-dihydroxyl-N-(methyl-d3)-tetrahydrofuran-2-carboxamide]	1156.15
[2H]C([2H])([2H])NC(=O)[C@H]1O[C@@H](n2cnc3c(NCc4ccc(C(F)(F)F)cc4)nc(-c4cncc(Cl)c4)nc32)[C@H](O)[C@@H]1O [compound 165, (2S,3S,4R,5R)-5-(6-(4-(trifluoromethyl)benzylamino)-2-(5-chloropyridin-3-yl)-9H-purin-9-yl)-3,4-dihydroxyl-N-(methyl-d3)-tetrahydrofuran-2-formamide]	564.70
CNC(=O)[C@H]1O[C@@H](n2cnc3c(NCc4cccc(C(F)(F)F)c4)nc(-c4cncc(F)c4)nc32)[C@H](O)[C@@H]1O [compound 180, (2S,3S,4R,5R)-5-(6-(3-(trifluoromethyl)benzylamino)-2-(5-fluoropyridin-3-yl)-9H-purin-9-yl)-3,4-dihydroxyl-N-methyl-tetrahydrofuran-2-formamide]	81.74
CNC(=O)[C@H]1O[C@@H](n2cnc3c(NCc4cccc(C(F)(F)F)c4)nc(-c4cncc(OC)c4)nc32)[C@H](O)[C@@H]1O [compound 181, (2S,3S,4R,5R)-5-(6-(3-(trifluoromethyl)benzylamino)-2-(5-methoxypyridin-3-yl)-9/-purin-9-yl)-3,4-dihydroxyl-N-methyl-tetrahydrofuran-2-formamide]	72.67
CNC(=O)[C@H]1O[C@@H](n2cnc3c(NCc4cccc(Cl)c4)nc(-c4cncc(Cl)c4)nc32)[C@H](O)[C@@H]1O [compound 209, (2S,3S,4R,5R)-5-(6-((3-chlorobenzyl))amino-2-(5-chloropyridin-3-yl)-9H-purin-9-yl)-3,4-dihydroxyl-N-methyltetrahydrofuran-2-carboxamide]	1347.60
CNC(=O)[C@H]1O[C@@H](n2cnc3c(NCc4cccc(F)c4)nc(-c4cncc(Cl)c4)nc32)[C@H](O)[C@@H]1O [compound 210, (2S,3S,4R,5R)-5-(2-(5-chloropyridin-3-yl)-6-((3-fluorobenzyl))amino-9H-purin-9-yl)-3,4-dihydroxyl-N-methyltetrahydrofuran-2-carboxamide]	580.90
CCNC(=O)[C@H]1O[C@@H](n2cnc3c(NCc4ccccc4)nc(-c4cncc(Cl)c4)nc32)[C@H](O)[C@@H]1O [compound 242, (2S,3S,4R,5R)-5-(6-(benzylamino)-2-(5-chloropyridin-3-yl)-9H-purin-9-yl)-N-ethyl-3,4-dihydroxyltetrahydrofuran-2-carboxamide]	811.33
[2H]C([2H])([2H])NC(=O)[C@H]1O[C@@H](n2cnc3c(N[C@H](C)c4ccccc4)nc(-c4cncc(Cl)c4)nc32)[C@H](O)[C@@H]1O [compound 251]	610.00
[2H]C([2H])([2H])NC(=O)[C@H]1O[C@@H](n2cnc3c(N[C@@H](C)c4ccccc4)nc(-c4cncc(Cl)c4)nc32)[C@H](O)[C@@H]1O [compound 252]	532.00

The remaining lines, values ahead:

AUC_D [kg·ng·h/mL/mg]	Structure (SMILES)
845.57	[2H]C([2H])([2H])NC(=O)[C@H]1O[C@@H](n2cnc3c(NCc4cccc(C)c4)nc(-c4cncc(Cl)c4)nc32)[C@H](O)[C@@H]1O [compound 164, (2S,3S,4R,5R)-5-(6-(m-methylphenylmethylamino)-2-(5-chloropyridin-3-yl)-9H-purin-9-yl)-3,4-dihydroxyl-N-(methyl-d3)-tetrahydrofuran-2-formamide]
1551.15	[2H]C([2H])([2H])NC(=O)[C@H]1O[C@@H](n2cnc3c(NCc4ccc(Cl)cc4)nc(-c4cncc(Cl)c4)nc32)[C@H](O)[C@@H]1O [compound 168, (2S,3S,4R,5R)-5-(6-(4-chlorobenzylamino)-2-(5-chloropyridin-3-yl)-9H-purin-9-yl)-3,4-dihydroxyl-N-(methyl-d3)-tetrahydrofuran-2-formamide]
138.00	[2H]C([2H])([2H])NC(=O)[C@H]1O[C@@H](n2cnc3c(NCC(F)(F)F)nc(-c4cncc(Cl)c4)nc32)[C@H](O)[C@@H]1O [compound 202]
765.47	[2H]C([2H])([2H])NC(=O)[C@H]1O[C@@H](n2cnc3c(NCc4cc(Cl)ccn4)nc(-c4cncc(Cl)c4)nc32)[C@H](O)[C@@H]1O [compound 214]
785.90	[2H]C([2H])([2H])NC(=O)[C@H]1O[C@@H](n2cnc3c(NCc4cc(C)ccn4)nc(-c4cncc(Cl)c4)nc32)[C@H](O)[C@@H]1O [compound 215]
278.77	[2H]C([2H])([2H])NC(=O)[C@H]1O[C@@H](n2cnc3c(NCc4cccc(C#N)c4)nc(-c4cncc(Cl)c4)nc32)[C@H](O)[C@@H]1O [compound 221, (2S,3S,4R,5R)-5-(2-(5-chloropyridin-3-yl)-6-((3-cyanobenzyl)amino)-9H-purin-9-yl)-3,4-dihydroxyl-N-(methyl-d3)-tetrahydrofuran-2-carboxamide]
11356.86	[2H]C([2H])([2H])NC(=O)[C@H]1O[C@@H](n2cnc3c(NCc4cc(C)ccc4F)nc(-c4cncc(Cl)c4)nc32)[C@H](O)[C@@H]1O [compound 225, (2S,3S,4R,5R)-5-(2-(5-chloropyridin-3-yl)-6-((2-fluoro-5-methylbenzyl)amino)-9H-purin-9-yl)-3,4-dihydroxyl-N-(methyl-d3)-tetrahydrofuran-2-carboxamide]
1456.00	[2H]C([2H])([2H])NC(=O)[C@H]1O[C@@H](n2cnc3c(NCc4cccnc4)nc(-c4cncc(Cl)c4)nc32)[C@H](O)[C@@H]1O [compound 235, (2S,3S,4R,5R)-5-(2-(5-chloropyridin-3-yl)-6-(pyridin-3-ylmethylamino)-9H-purin-9-yl)-3,4-dihydroxyl-N-(methyl-d3)-tetrahydrofuran-2-carboxamide]
1024.58	[2H]C([2H])([2H])NC(=O)[C@H]1O[C@@H](n2cnc3c(NCc4cc(Cl)cc(Cl)c4)nc(-c4cncc(Cl)c4)nc32)[C@H](O)[C@@H]1O [compound 240, (2S,3S,4R,5R)-5-(2-(5-chloropyridin-3-yl)-6-(3,5-dichlorobenzylamino)-9H-purin-9-yl)-3,4-dihydroxyl-N-(methyl-d3)-tetrahydrofuran-2-carboxamide]
440.67	[2H]C([2H])([2H])NC(=O)[C@H]1O[C@@H](n2cnc3c(NCc4cc(F)cc(Cl)c4)nc(-c4cncc(Cl)c4)nc32)[C@H](O)[C@@H]1O [compound 241, (2S,3S,4R,5R)-5-(6-(3-chloro-5-fluorobenzylamino)-2-(5-chloropyridin-3-yl)-9H-purin-9-yl)-3,4-dihydroxyl-N-(methyl-d3)-tetrahydrofuran-2-carboxamide]
3298.00	[2H]C([2H])([2H])NC(=O)[C@H]1O[C@@H](n2cnc3c(NCc4cccc(Br)c4)nc(-c4cncc(Cl)c4)nc32)[C@H](O)[C@@H]1O [compound 248, (2S,3S,4R,5R)-5-(6-((3-bromobenzyl)amino)-2-(5-chloropyridin-3-yl)-9H-purin-9-yl)-3,4-dihydroxyl-N-(methyl-d3)tetrahydrofuran-2-carboxamide]
2137.00	[2H]C([2H])([2H])NC(=O)[C@H]1O[C@@H](n2cnc3c(NCc4cccc(I)c4)nc(-c4cncc(Cl)c4)nc32)[C@H](O)[C@@H]1O [compound 250, (2S,3S,4R,5R)-5-(2-(5-chloropyridin-3-yl)-6-((3-iodobenzyl)amino)-9H-purin-9-yl)-3,4-dihydroxyl-N-(methyl-d3)tetrahydrofuran-2-carboxamide]
299.00	[2H]C([2H])([2H])NC(=O)[C@H]1O[C@@H](n2cnc3c(NCc4cscn4)nc(-c4cncc(Cl)c4)nc32)[C@H](O)[C@@H]1O [compound 253, (2S,3S,4R,5R)-5-(2-(5-chloropyridin-3-yl)-6-((thiazol-4-ylmethyl)amino)-9H-purin-9-yl)-3,4-dihydroxyl-N-(methyl-d3)tetrahydrofuran-2-carboxamide]
96.00	[2H]C([2H])([2H])NC(=O)[C@H]1O[C@@H](n2cnc3c(NCc4cocn4)nc(-c4cncc(Cl)c4)nc32)[C@H](O)[C@@H]1O [compound 257, (2S,3S,4R,5R)-5-(2-(5-chloropyridin-3-yl)-6-((oxazol-4-ylmethyl)amino)-9H-purin-9-yl)-3,4-dihydroxyl-N-(methyl-d3)tetrahydrofuran-2-carboxamide]
764.50	[2H]C([2H])([2H])NC(=O)[C@H]1O[C@@H](n2cnc3c(NCc4cccc(OC)c4)nc(-c4cncc(Cl)c4)nc32)[C@H](O)[C@@H]1O [compound 265, (2S,3S,4R,5R)-5-(2-(5-chloropyridin-3-yl)-6-(3-methoxybenzylamino)-9H-purin-9-yl)-3,4-dihydroxyl-N-(methyl-d3)-tetrahydrofuran-2-carboxamide]
